As usually defined, the MIC is the lowest concentration that inhibits growth of the organism. Broadly, the MBC is the smallest concentration meeting the test's criterion for killing.

Consider one compound from patent publication US20140205654A1, “LIPOSOMAL VANCOMYCIN FOR THE TREATMENT OF MRSA INFECTIONS” (CEDARS-SINAI MEDICAL CENTER, priority 2011, published 2014).

Holding throughout (format): cell-based
Assay [1] has as its system MRSA 78. Description: MIC by broth dilution. To be noted: Staphylococcus aureus, 24 h, read-out: Vancomycin MIC. As for the experimental part:
(§1) The MICs of free and liposomal antibiotics for all strains were determined by the broth dilution technique. Briefly, serial dilutions of free- or liposome-encapsulated antibiotic from 20 to 0.3 μg/ml were prepared. For bacterial suspensions, frozen stocks of MRSA were streaked on sheep blood agar plates. Single colonies were inoculated into fresh media and shaken for 20 hr at 37° C. The overnight bacteria were diluted and added to 96-well plates (Becton Dickinson) to achieve an approximate concentration of 1×10^5. The inocula were confirmed by plating on agar. The 96-well plates were then incubated with or without shaking at 37° C., and the lowest concentration of antibiotic formulations that inhibited visible growth of bacteria was determined after 24 hours (MIC). Incubation of the plates with shaking (at 200 rpm) increased the consistency of MIC measurement for the liposomal preparations. For determination of MBC, the broths used for MIC determination were plated on agar, and the first dilution at which 99.9% of the original inocula were killed was identified. All MIC and MBC assays were performed at least three times.
A general note: Broth dilution looks for growth in wells or tubes with falling amounts of substance.

In assay [2] the test system is MRSA 79. Description: MIC by broth dilution. To be noted: Staphylococcus aureus, 24 h, read-out: Vancomycin MIC. As for the experimental part:
as §1

The subject of assay [3] is MRSA 80. Description: MIC by broth dilution. To be noted: Staphylococcus aureus, 24 h, read-out: Vancomycin MIC. Here is the method:
as §1

Assay [4] has as its system MRSA 81. The assay is described as follows: MIC by broth dilution. To be noted: Staphylococcus aureus, 24 h, read-out: Vancomycin MIC. As for the experimental part:
as §1

Assay [5] has as its system MRSA 82. The assay is described as follows: MIC by broth dilution. The settings on record: Staphylococcus aureus, 24 h, read-out: Vancomycin MIC. Here is the method:
as §1

Assay [6] concerns MRSA 83. The assay is described as follows: MIC by broth dilution. To be noted: Staphylococcus aureus, 24 h, read-out: Vancomycin MIC. Here is the method:
as §1

The subject of assay [7] is MRSA strain ATCC 43300. Description: MIC by broth dilution. To be noted: Staphylococcus aureus, 24 h, read-out: Vancomycin MIC. Here is the method:
as §1

Assay [8] deals with MRSA strain LAC. Description: MIC by broth dilution. To be noted: Staphylococcus aureus, 24 h, read-out: Vancomycin MIC. Here is the method: as §1
In assay [9] the test system is MRSA strain NRS-35. Description: MIC by broth dilution. The settings on record: Staphylococcus aureus, 24 h, read-out: Vancomycin MIC. Here is the method: as §1
Assay [10] relates to MRSA strain LAC. Description: MBC determination. The settings on record: Staphylococcus aureus, read-out: Vancomycin MBC. As for the experimental part: as §1
The subject of assay [11] is MRSA strain NRS-35. Description: MBC determination. To be noted: Staphylococcus aureus, read-out: Vancomycin MBC. As for the experimental part: as §1

Values after ≈ are worked out from the molar mass of the structure shown.

As to `CN[C@H](CC(C)C)C(=O)N[C@H]1C(=O)N[C@@H](CC(N)=O)C(=O)N[C@H]2C(=O)N[C@H]3C(=O)N[C@H](C(=O)N[C@H](C(=O)O)c4cc(O)cc(O)c4-c4cc3ccc4O)[C@H](O)c3ccc(c(Cl)c3)Oc3cc2cc(c3O[C@@H]2O[C@H](CO)[C@@H](O)[C@H](O)[C@H]2O[C@H]2C[C@](C)(N)[C@H](O)[C@H](C)O2)Oc2ccc(cc2Cl)[C@H]1O` [Free Vancomycin, Vancomycin], the MIC in [1] is 1.25 µg/mL (≈ 0.863 µM); in [2], 1.25 µg/mL (≈ 0.863 µM); in assay [3], 1.25 µg/mL (≈ 0.863 µM); in assay [4], 1.25 µg/mL (≈ 0.863 µM); in [5], 2.5 µg/mL (≈ 1.73 µM); in assay [6] it was 1.25 µg/mL (≈ 0.863 µM). The minimum inhibitory concentration (MIC) in [7] is 1.25 to 2.5 µg/mL (≈ 0.863 to 1.73 µM); in [8], 1.25 to 2.5 µg/mL (≈ 0.863 to 1.73 µM); in assay [9], 2.5 µg/mL (≈ 1.73 µM). Also, the MBC in [10] is 2.5 µg/mL (≈ 1.73 µM); in assay [11] it was 2.5 to 5 µg/mL (≈ 1.73 to 3.45 µM).
